These cell lines were tested with CC1(C)CCC(CN2CCN(c3ccc(C(=O)NS(=O)(=O)c4ccc(NCC5CCOCC5)c([N+](=O)[O-])c4)c(Oc4cnc5[nH]ccc5c4)c3)CC2)=C(c2ccc(Cl)cc2)C1 [Venetoclax] + CC1(C)CCC(c2ccc(Cl)cc2)=C(CN2CCN(c3ccc(C(=O)NS(=O)(=O)c4ccc(N[C@H](CCN5CCOCC5)CSc5ccccc5)c(S(=O)(=O)C(F)(F)F)c4)cc3)CC2)C1 [Navitoclax] (partner 0.5 µM) (assay: relative viability (nuclei count vs DMSO), 5 days (fraction); higher = more cells survive). Settings: first compound 0.01 µM.
Outline: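 Values are medians from duplicate plates. Each reflects relative viability, defined as the nuclei count of treated wells over that of vehicle wells. Lung cancer cell lines in 1536-well plates were pin-tool dosed one day after seeding with one drug alone or with a fixed anchor-drug dose plus five library-drug doses (not always all listed) in √10 steps, then fixed, stained and imaged at 4× after 5 days.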
Work on NCI-H2126 yielded a relative viability of 0.886.
Calu-6 was tested, and the relative viability was 0.716.
HCC-44 gave a relative viability of 0.987.
Cell Line NCI-H1734 has a relative viability of 0.767.
With LK-2 the relative viability was 0.809.
NCI-H2228 showed a relative viability of 0.932.
For SK-MES-1, the relative viability was 1.25.
HARA gave a relative viability of 0.996.
COR-L23 gave a relative viability of 0.996.
COR-L 105 gave a relative viability of 0.743.
IA-LM gave a relative viability of 0.84.
Cell Line A549 has a relative viability of 1.29.
For NCI-H1299, the relative viability was 1.07.
NCI-H1792 showed a relative viability of 0.649.
In the case of NCI-H1703, the relative viability was 1.33.
In the case of NCI-H727, the relative viability was 0.375.

Same assay, conditions: first compound 0.03162 µM
With PC-14 the relative viability was 1.03.
With NCI-H1666 the relative viability was 0.986.
For EBC-1, the relative viability was 0.455.
Cell Line NCI-H1755 has a relative viability of 0.988.
Cell Line NCI-H2023 has a relative viability of 0.987.
EPLC-272H was tested, and the relative viability was 1.23.
Work on LCLC-97TM1 yielded a relative viability of 0.608.
In the case of PC-3 [JPC-3], the relative viability was 0.785.
LOU-NH91 gave a relative viability of 0.832.
In the case of NCI-H647, the relative viability was 1.26.
With NCI-H23 the relative viability was 0.774.
For EMC-BAC-2, the relative viability was 1.17.
NCI-H2126 was tested, and the relative viability was 0.853.
For Calu-6, the relative viability was 0.934.
Cell Line HCC-44 has a relative viability of 0.943.
NCI-H1734 showed a relative viability of 1.
Work on LK-2 yielded a relative viability of 0.945.
Cell Line NCI-H2228 has a relative viability of 1.03.
SK-MES-1 showed a relative viability of 1.16.
HARA showed a relative viability of 1.17.
Cell Line COR-L23 has a relative viability of 1.07.
COR-L 105 was tested, and the relative viability was 0.755.
For IA-LM, the relative viability was 0.899.
Work on A549 yielded a relative viability of 1.25.
Work on NCI-H1299 yielded a relative viability of 1.04.
NCI-H1792 gave a relative viability of 0.71.
NCI-H1703 showed a relative viability of 1.24.
Cell Line NCI-H727 has a relative viability of 0.462.

Same assay, conditions: first compound 0.1 µM
Cell Line PC-14 has a relative viability of 0.936.
NCI-H1666 gave a relative viability of 0.978.
EBC-1 was tested, and the relative viability was 0.479.
NCI-H1755 gave a relative viability of 0.96.
NCI-H2023 gave a relative viability of 0.924.
EPLC-272H gave a relative viability of 1.12.
With LCLC-97TM1 the relative viability was 0.44.
Work on PC-3 [JPC-3] yielded a relative viability of 0.78.
With LOU-NH91 the relative viability was 0.676.
NCI-H647 was tested, and the relative viability was 1.22.
Work on NCI-H23 yielded a relative viability of 0.774.
With EMC-BAC-2 the relative viability was 1.14.
In the case of NCI-H2126, the relative viability was 0.851.
In the case of Calu-6, the relative viability was 0.851.
Cell Line HCC-44 has a relative viability of 0.891.
NCI-H1734 was tested, and the relative viability was 0.78.
LK-2 was tested, and the relative viability was 0.763.
Work on NCI-H2228 yielded a relative viability of 0.927.
Cell Line SK-MES-1 has a relative viability of 1.2.
Work on HARA yielded a relative viability of 1.1.
COR-L23 gave a relative viability of 0.947.
COR-L 105 showed a relative viability of 0.782.
In the case of IA-LM, the relative viability was 0.807.
In the case of A549, the relative viability was 1.23.
Cell Line NCI-H1299 has a relative viability of 1.01.
Work on NCI-H1792 yielded a relative viability of 0.696.
NCI-H1703 showed a relative viability of 0.969.
NCI-H727 gave a relative viability of 0.36.

Same assay, conditions: first compound 0.3162 µM
Work on PC-14 yielded a relative viability of 0.954.
NCI-H1666 showed a relative viability of 0.971.
In the case of EBC-1, the relative viability was 0.443.
NCI-H1755 was tested, and the relative viability was 0.999.
NCI-H2023 showed a relative viability of 0.96.
EPLC-272H was tested, and the relative viability was 1.14.
LCLC-97TM1 gave a relative viability of 0.361.
For PC-3 [JPC-3], the relative viability was 0.829.
For LOU-NH91, the relative viability was 0.77.
NCI-H647 showed a relative viability of 1.16.
NCI-H23 showed a relative viability of 0.82.
For EMC-BAC-2, the relative viability was 1.15.
With NCI-H2126 the relative viability was 0.808.
Cell Line Calu-6 has a relative viability of 0.91.
HCC-44 was tested, and the relative viability was 0.979.
Cell Line NCI-H1734 has a relative viability of 0.811.
For LK-2, the relative viability was 0.816.
NCI-H2228 showed a relative viability of 0.836.
Work on SK-MES-1 yielded a relative viability of 1.25.
HARA showed a relative viability of 1.11.
COR-L23 showed a relative viability of 0.947.
Cell Line COR-L 105 has a relative viability of 0.794.
IA-LM was tested, and the relative viability was 0.763.
A549 gave a relative viability of 1.17.
In the case of NCI-H1299, the relative viability was 1.01.
With NCI-H1792 the relative viability was 0.671.
Work on NCI-H1703 yielded a relative viability of 1.01.
NCI-H727 gave a relative viability of 0.323.

Same assay, conditions: first compound 1 µM
PC-14 showed a relative viability of 0.926.
In the case of NCI-H1666, the relative viability was 0.901.
For EBC-1, the relative viability was 0.47.
In the case of NCI-H1755, the relative viability was 0.925.
NCI-H2023 gave a relative viability of 0.86.
EPLC-272H showed a relative viability of 1.05.
Work on LCLC-97TM1 yielded a relative viability of 0.446.
Cell Line PC-3 [JPC-3] has a relative viability of 0.744.
For LOU-NH91, the relative viability was 0.659.
NCI-H647 gave a relative viability of 0.901.
For NCI-H23, the relative viability was 0.704.
In the case of EMC-BAC-2, the relative viability was 1.07.
With NCI-H2126 the relative viability was 0.855.
With Calu-6 the relative viability was 0.832.
HCC-44 showed a relative viability of 0.975.
NCI-H1734 gave a relative viability of 0.787.
With LK-2 the relative viability was 0.845.
For NCI-H2228, the relative viability was 0.999.
SK-MES-1 gave a relative viability of 1.09.
HARA gave a relative viability of 1.15.
Cell Line COR-L23 has a relative viability of 0.86.
COR-L 105 was tested, and the relative viability was 0.748.
IA-LM was tested, and the relative viability was 0.662.
Cell Line A549 has a relative viability of 1.08.
In the case of NCI-H1299, the relative viability was 1.
With NCI-H1792 the relative viability was 0.601.
NCI-H1703 gave a relative viability of 1.04.
With NCI-H727 the relative viability was 0.516.
